Reference: patent US9969742B2, “Imidazotriazinone compounds” (Ironwood Pharmaceuticals, Inc., priority 2012, dated 2018)
Where two headings read alike, the source gives them in different places. Each block holds one compound with its values, some of them ahead of it.

Key:
Format in all cases: biochemical
[1] = biological target: T1, PDE9A2 (Homo sapiens, UniProt O76083); experiment: Phosphodiesterase enzyme screening assay, PDE9A2; settings: read-out: Band (PDE9A2 IC50)
T1 construct: purchased Reaction Biology Corporation, Malvern, Pa
Outline: (§1)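 Recombinant enzymes were run in 100 mM HEPES pH 7.5, 5 mM MgCl2, 1 mM DTT, 0.003% Brij with 4.0 μM cGMP substrate, started with cGMP or cAMP, 1 h at RT, and stopped with EDTA. Fluorescent substrate and product were separated by microfluidic mobility shift.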

[2] = biological target: T2, PDE1A (Homo sapiens, UniProt P54750); experiment: Phosphodiesterase enzyme screening assay, PDE1A
T2 construct: purchased Reaction Biology Corporation, Malvern, Pa
Outline: as §1

[3] = biological target: T3, PDE1B (Homo sapiens, UniProt Q01064); experiment: Phosphodiesterase enzyme screening assay, PDE1B
T3 construct: purchased Reaction Biology Corporation, Malvern, Pa
Outline: as §1

[4] = Table 3, 4.0 μM cGMP substrate, 1 hour at R.T.
[5] = ratio of IC50 values, PDE1A versus PDE9A2, value greater than 1 = greater selectivity for PDE9A2
[6] = ratio of IC50 values, PDE1B versus PDE9A2, value greater than 1 = greater selectivity for PDE9A2
[7] = ratio of IC50 values, value greater than 1 indicates greater selectivity for PDE9A2
[8] = Table 2, 10 concentrations, 4.0 μM cGMP substrate, 1 hour at R.T.
[9] = Table 2, ratio of IC50 values, value greater than 1 indicates greater selectivity for PDE9A2
[10] = 4.0 μM cGMP substrate, 1 hour at R.T.
[11] = ratio of IC50 values PDE1A / PDE9A2, value greater than 1 = greater selectivity for PDE9A2
[12] = ratio of IC50 values PDE1B / PDE9A2, value greater than 1 = greater selectivity for PDE9A2
[13] = Table 1, 10 concentrations, 4.0 μM cGMP substrate, 1 hour at R.T.
[14] = Table 1, ratio of IC50 values, value greater than 1 indicates greater selectivity for PDE9A2

T3 sequence (Q01064 whole entry): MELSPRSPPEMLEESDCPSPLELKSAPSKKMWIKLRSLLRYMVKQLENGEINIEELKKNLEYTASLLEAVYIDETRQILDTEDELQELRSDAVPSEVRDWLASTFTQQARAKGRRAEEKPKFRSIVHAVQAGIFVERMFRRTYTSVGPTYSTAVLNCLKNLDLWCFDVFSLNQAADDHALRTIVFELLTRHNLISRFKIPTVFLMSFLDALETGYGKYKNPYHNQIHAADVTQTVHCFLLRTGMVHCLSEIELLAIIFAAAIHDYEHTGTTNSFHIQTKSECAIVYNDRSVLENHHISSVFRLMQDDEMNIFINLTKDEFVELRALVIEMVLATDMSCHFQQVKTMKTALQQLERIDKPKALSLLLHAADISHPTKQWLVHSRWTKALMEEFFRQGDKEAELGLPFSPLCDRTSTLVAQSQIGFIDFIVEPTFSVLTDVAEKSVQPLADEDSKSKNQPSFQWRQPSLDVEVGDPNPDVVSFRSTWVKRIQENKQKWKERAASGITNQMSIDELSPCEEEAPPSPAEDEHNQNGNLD
T2 sequence (P54750 whole entry): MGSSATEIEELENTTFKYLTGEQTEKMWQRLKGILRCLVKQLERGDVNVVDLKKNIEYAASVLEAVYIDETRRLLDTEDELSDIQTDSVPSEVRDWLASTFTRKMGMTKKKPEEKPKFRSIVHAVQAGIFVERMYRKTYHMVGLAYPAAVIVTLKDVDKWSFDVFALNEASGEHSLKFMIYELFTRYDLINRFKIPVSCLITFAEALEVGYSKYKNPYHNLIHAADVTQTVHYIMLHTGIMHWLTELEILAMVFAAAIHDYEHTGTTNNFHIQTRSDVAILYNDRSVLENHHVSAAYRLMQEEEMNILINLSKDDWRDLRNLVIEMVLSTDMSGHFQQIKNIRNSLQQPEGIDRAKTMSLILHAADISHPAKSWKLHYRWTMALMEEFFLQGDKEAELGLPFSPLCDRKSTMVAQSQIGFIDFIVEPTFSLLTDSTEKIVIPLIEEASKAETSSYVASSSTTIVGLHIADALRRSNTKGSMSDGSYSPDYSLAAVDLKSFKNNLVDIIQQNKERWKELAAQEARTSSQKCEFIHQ
T1 sequence (O76083 1-533 isoform O76083-2): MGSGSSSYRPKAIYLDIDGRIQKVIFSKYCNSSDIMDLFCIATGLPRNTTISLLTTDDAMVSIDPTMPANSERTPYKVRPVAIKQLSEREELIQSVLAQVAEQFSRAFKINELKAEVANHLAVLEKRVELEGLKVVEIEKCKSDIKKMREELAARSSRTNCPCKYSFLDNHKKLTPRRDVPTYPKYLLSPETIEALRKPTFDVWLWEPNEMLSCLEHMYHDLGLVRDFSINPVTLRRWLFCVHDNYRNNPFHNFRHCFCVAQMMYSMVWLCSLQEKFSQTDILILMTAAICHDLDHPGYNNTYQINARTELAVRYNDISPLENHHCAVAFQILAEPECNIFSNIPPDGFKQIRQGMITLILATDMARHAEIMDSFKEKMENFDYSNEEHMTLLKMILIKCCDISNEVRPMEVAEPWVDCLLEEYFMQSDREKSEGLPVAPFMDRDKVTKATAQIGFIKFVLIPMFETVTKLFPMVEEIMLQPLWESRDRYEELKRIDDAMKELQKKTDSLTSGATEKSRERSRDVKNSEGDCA

IC50 [1, 4]: < 1000 nM
PDE1A selectivity (versus PDE9A2) [2, 5]: 242
PDE1B selectivity (versus PDE9A2) [3, 6]: 298
SMILES: Cc1cccnc1CN1CC(C)C(c2nn3c(C4CCOCC4)ncc3c(=O)[nH]2)C1 (single isomer, unassigned; (+)) [(+)-2-((3,4-trans)-4-methyl-1-((3-methylpyridin-2-yl)methyl)pyrrolidin-3-yl)-7-(tetrahydro-2H-pyran-4-yl)imidazo[5,1-f][1,2,4]triazin-4(3H)-one]

IC50 [1, 8]: < 1000 nM
PDE1A selectivity (versus PDE9A2) [2, 9]: 585
PDE1B selectivity (versus PDE9A2) [3, 9]: 566
SMILES: CC1CN(Cc2nccc(C(F)(F)F)n2)CC1c1nn2c(C3CCOCC3)ncc2c(=O)[nH]1 (single isomer, unassigned; (+)) [(+)-2-((3,4-trans)-4-methyl-1-((4-(trifluoromethyl)pyrimidin-2-yl)methyl)pyrrolidin-3-yl)-7-(tetrahydro-2H-pyran-4-yl)imidazo[5,1-f][1,2,4]triazin-4(3H)-one]

IC50 [1, 10]: < 1000 nM
PDE1A selectivity (versus PDE9A2) [2, 11]: 143
PDE1B selectivity (versus PDE9A2) [3, 12]: 116
SMILES: Cc1ccnc(CN2CC(C)C(c3nn4c(C5CCOCC5)ncc4c(=O)[nH]3)C2)c1 (single isomer, unassigned; (+)) [(+)-2-((3,4-trans)-4-methyl-1-((4-methylpyridin-2-yl)methyl)pyrrolidin-3-yl)-7-(tetrahydro-2H-pyran-4-yl)imidazo[5,1-f][1,2,4]triazin-4(3H)-one]

IC50 [1, 8]: < 1000 nM
PDE1A selectivity (versus PDE9A2) [2, 9]: 182
PDE1B selectivity (versus PDE9A2) [3, 9]: 220
SMILES: Cc1ccnc(CN2CC(C)C(c3nn4c(C5CCOCC5)ncc4c(=O)[nH]3)C2)n1 (single isomer, unassigned; (+)) [(+)-2-((3,4-trans)-4-methyl-1-((4-methylpyrimidin-2-yl)methyl)pyrrolidin-3-yl)-7-(tetrahydro-2H-pyran-4-yl)imidazo[5,1-f][1,2,4]triazin-4(3H)-one]

IC50 [1, 8]: < 1000 nM
PDE1A selectivity (versus PDE9A2) [2, 9]: 42
PDE1B selectivity (versus PDE9A2) [3, 9]: 76
SMILES: Cc1cnc(CN2CC(C)C(c3nn4c(C5CCOCC5)ncc4c(=O)[nH]3)C2)nc1 (single isomer, unassigned; (+)) [(+)-2-((3,4-trans)-4-methyl-1-((5-methylpyrimidin-2-yl)methyl)pyrrolidin-3-yl)-7-(tetrahydro-2H-pyran-4-yl)imidazo[5,1-f][1,2,4]triazin-4(3H)-one]

IC50 [1, 13]: < 1000 nM
PDE1A selectivity (versus PDE9A2) [2, 14]: 97
PDE1B selectivity (versus PDE9A2) [3, 14]: 177
SMILES: Cc1ccc(CN2CC(C)C(c3nn4c(C5CCOCC5)ncc4c(=O)[nH]3)C2)cn1 (single isomer, unassigned; (+)) [(+)-2-((3,4-trans)-4-methyl-1-((6-methylpyridin-3-yl)methyl)pyrrolidin-3-yl)-7-(tetrahydro-2H-pyran-4-yl)imidazo[5,1-f][1,2,4]triazin-4(3H)-one]

IC50 [1]: < 1000 nM
PDE1A selectivity (versus PDE9A2) [2, 7]: 81
PDE1B selectivity (versus PDE9A2) [3, 7]: 119
SMILES: CC1CN(Cc2ncco2)CC1c1nn2c(C3CCOCC3)ncc2c(=O)[nH]1 (single isomer, unassigned; (+)) [(+)-2-((3,4-trans)-4-methyl-1-(oxazol-2-ylmethyl)pyrrolidin-3-yl)-7-(tetrahydro-2H-pyran-4-yl)imidazo[5,1-f][1,2,4]triazin-4(3H)-one]

IC50 [1, 13]: < 1000 nM
PDE1A selectivity (versus PDE9A2) [2, 14]: 182
PDE1B selectivity (versus PDE9A2) [3, 14]: 276
SMILES: CC1CN(Cc2cccnn2)CC1c1nn2c(C3CCOCC3)ncc2c(=O)[nH]1 (single isomer, unassigned; (+)) [(+)-2-((3,4-trans)-4-methyl-1-(pyridazin-3-ylmethyl)pyrrolidin-3-yl)-7-(tetrahydro-2H-pyran-4-yl)imidazo[5,1-f][1,2,4]triazin-4(3H)-one]

Second part, the compound before the results:

SMILES: CC1CN(Cc2ncccc2C(F)(F)F)CC1c1nn2c(C3CCOCC3)ncc2c(=O)[nH]1 (single isomer, unassigned; (+)) [(+)-2-((3,4-trans)-4-methyl-1-((3-(trifluoromethyl)pyridin-2-yl)methyl)pyrrolidin-3-yl)-7-(tetrahydro-2H-pyran-4-yl)imidazo[5,1-f][1,2,4]triazin-4(3H)-one]
IC50 [1, 4]: < 1000 nM
PDE1A selectivity (versus PDE9A2) [2, 5]: 123
PDE1B selectivity (versus PDE9A2) [3, 6]: 58

SMILES: CC1CN(Cc2cnn3c2CCCC3)CC1c1nn2c(C3CCOCC3)ncc2c(=O)[nH]1 (single isomer, unassigned; (+)) [(+)-2-((3,4-trans)-4-methyl-1-((4,5,6,7-tetrahydropyrazolo[1,5-a]pyridin-3-yl)methyl)pyrrolidin-3-yl)-7-(tetrahydro-2H-pyran-4-yl)imidazo[5,1-f][1,2,4]triazin-4(3H)-one]
IC50 [1]: < 1000 nM
PDE1A selectivity (versus PDE9A2) [2, 7]: 337
PDE1B selectivity (versus PDE9A2) [3, 7]: 337

SMILES: CC1CN(Cc2ncc(N3CCCC3)cn2)CC1c1nn2c(C3CCOCC3)ncc2c(=O)[nH]1 (single isomer, unassigned; (+)) [(+)-2-((3,4-trans)-4-methyl-1-((5-(pyrrolidin-1-yl)pyrimidin-2-yl)methyl)pyrrolidin-3-yl)-7-(tetrahydro-2H-pyran-4-yl)imidazo[5,1-f][1,2,4]triazin-4(3H)-one]
IC50 [1, 8]: < 1000 nM
PDE1A selectivity (versus PDE9A2) [2, 9]: 105
PDE1B selectivity (versus PDE9A2) [3, 9]: 496

SMILES: CC1CN(Cc2ccc(C(F)(F)F)cn2)CC1c1nn2c(C3CCOCC3)ncc2c(=O)[nH]1 (single isomer, unassigned; (+)) [(+)-2-((3,4-trans)-4-methyl-1-((5-(trifluoromethyl)pyridin-2-yl)methyl)pyrrolidin-3-yl)-7-(tetrahydro-2H-pyran-4-yl)imidazo[5,1-f][1,2,4]triazin-4(3H)-one]
IC50 [1, 4]: < 1000 nM
PDE1A selectivity (versus PDE9A2) [2, 5]: 258
PDE1B selectivity (versus PDE9A2) [3, 6]: 560

SMILES: Cc1nc(CN2CC(C)C(c3nn4c(C5CCOCC5)ncc4c(=O)[nH]3)C2)no1 (single isomer, unassigned; (+)) [(+)-2-((3,4-trans)-4-methyl-1-((5-methyl-1,2,4-oxadiazol-3-yl)methyl)pyrrolidin-3-yl)-7-(tetrahydro-2H-pyran-4-yl)imidazo[5,1-f][1,2,4]triazin-4(3H)-one]
IC50 [1]: < 1000 nM
PDE1A selectivity (versus PDE9A2) [2, 7]: 20
PDE1B selectivity (versus PDE9A2) [3, 7]: 21

SMILES: CC1CN(Cc2cccc(C(F)(F)F)n2)CC1c1nn2c(C3CCOCC3)ncc2c(=O)[nH]1 (single isomer, unassigned; (+)) [(+)-2-((3,4-trans)-4-methyl-1-((6-(trifluoromethyl)pyridin-2-yl)methyl)pyrrolidin-3-yl)-7-(tetrahydro-2H-pyran-4-yl)imidazo[5,1-f][1,2,4]triazin-4(3H)-one]
IC50 [1, 4]: < 1000 nM
PDE1A selectivity (versus PDE9A2) [2, 5]: 708
PDE1B selectivity (versus PDE9A2) [3, 6]: 389

SMILES: CC1CN(Cc2ccc(C(F)(F)F)nc2)CC1c1nn2c(C3CCOCC3)ncc2c(=O)[nH]1 (single isomer, unassigned; (+)) [(+)-2-((3,4-trans)-4-methyl-1-((6-(trifluoromethyl)pyridin-3-yl)methyl)pyrrolidin-3-yl)-7-(tetrahydro-2H-pyran-4-yl)imidazo[5,1-f][1,2,4]triazin-4(3H)-one]
IC50 [1, 13]: < 1000 nM
PDE1A selectivity (versus PDE9A2) [2, 14]: 333
PDE1B selectivity (versus PDE9A2) [3, 14]: 980

SMILES: Cc1cccc(CN2CC(C)C(c3nn4c(C5CCOCC5)ncc4c(=O)[nH]3)C2)n1 (single isomer, unassigned; (+)) [(+)-2-((3,4-trans)-4-methyl-1-((6-methylpyridin-2-yl)methyl)pyrrolidin-3-yl)-7-(tetrahydro-2H-pyran-4-yl)imidazo[5,1-f][1,2,4]triazin-4(3H)-one]
IC50 [1, 10]: < 1000 nM
PDE1A selectivity (versus PDE9A2) [2, 11]: 780
PDE1B selectivity (versus PDE9A2) [3, 12]: 1005

SMILES: CC1CN(CC2CCOCC2)CC1c1nn2c(C3CCOCC3)ncc2c(=O)[nH]1 (single isomer, unassigned; (+)) [(+)-2-((3,4-trans)-4-methyl-1-((tetrahydro-2H-pyran-4-yl)methyl)pyrrolidin-3-yl)-7-(tetrahydro-2H-pyran-4-yl)imidazo[5,1-f][1,2,4]triazin-4(3H)-one]
IC50 [1]: < 1000 nM
PDE1A selectivity (versus PDE9A2) [2, 7]: 77
PDE1B selectivity (versus PDE9A2) [3, 7]: 93

SMILES: Cc1ccccc1-c1ncc2c(=O)[nH]c(C3CN(Cc4cnccn4)CC3C)nn12 (single isomer, unassigned; (+)) [(+)-2-((3,4-trans)-4-methyl-1-(pyrazin-2-ylmethyl)pyrrolidin-3-yl)-7-(o-tolyl)imidazo[5,1-f][1,2,4]triazin-4(3H)-one]
IC50 [1]: < 1000 nM
PDE1A selectivity (versus PDE9A2) ([2]; ratio of IC50 values, PDE1A versus PDE9A2, value greater than 1 indicates greater selectivity for PDE9A2): 387
PDE1B selectivity (versus PDE9A2) ([3]; ratio of IC50 values, PDE1B versus PDE9A2, value greater than 1 indicates greater selectivity for PDE9A2): 469

SMILES: CC1CN(Cc2cnn3ccccc23)CC1c1nn2c(C3CCOCC3)ncc2c(=O)[nH]1 (single isomer, unassigned; (+)) [(+)-2-((3,4-trans)-4-methyl-1-(pyrazolo[1,5-a]pyridin-3-ylmethyl)pyrrolidin-3-yl)-7-(tetrahydro-2H-pyran-4-yl)imidazo[5,1-f][1,2,4]triazin-4(3H)-one]
IC50 [1]: < 1000 nM
PDE1A selectivity (versus PDE9A2) [2, 7]: 3240
PDE1B selectivity (versus PDE9A2) [3, 7]: 1010
